Assay results published in publication PMC9821961, “Ring-Modified Histidine-Containing Cationic Short Peptides Exhibit Anticryptococcal Activity by Cellular Disruption” (Molecules, 2022).
≈ marks a conversion by molar mass, not a printed value. Where two headings read alike, the source gives them in different places.

Tests used:
Assay in all cases: microbe, parasite or virus in culture
C. parapsilosis = format: cell-based, Candida parapsilosis; conditions: 48 h
Source text: (§1) Microbial strains: Microbial strains were procured from National Culture Collection of Pathogenic Fungi (NCCPF) at the Postgraduate Institute of Medical Education & Research (PGIMER), Chandigarh and Microbial Type Culture Collection and Gene bank (MTCC) at the Institute of Microbial Technology (IMTECH), Chandigarh, India. Peptides were screened against five different strains of fungi: viz. Candida albicans (NCCPF400034), Candida glabrata (MTCC 3019), Candida parapsilosis (NCCPF 440002), Candida krusei (NCCPF 440002) and Cryptococcus neoformans (NCCPF250316), and five strains of bacteria: viz. Escherichia coli (MTCC 2961), Staphylococcus aureus (MTCC 3160), Enterococcus faecalis (MTCC 439), Streptococcus pyogenes (MTCC 442) and Pseudomonas aeruginosa (MTCC 3542).
(§2) Growth media: Antifungal susceptibility testing was carried out using standard broth microdilution assays as per the Clinical and Laboratory Standards Institute (CLSI) guidelines for fungi. RPMI 1640 (Sigma), yeast extract, peptone and dextrose (YPED, Himedia) were used as the incubation broths. The cells were diluted to a cell density of 10^3 colony forming unit (CFU/mL) and incubated at 30 °C for 48 h. Furthermore, Muller Hinton (Himedia) media was utilized for bacterial strains and antibacterial activity was evaluated per CLSI guidelines for bacteria. Bacterial cells were diluted to a cell density of 10^5 CFU/mL and incubated at 37 °C for 24 h. Amphotericin B (Himedia, India) and rifampicin (Himedia, India) were used as standard drugs for the evaluation of activity against all the fungal and bacterial strains, respectively.
(§3) The stock solutions of peptides (2 mg/mL) were prepared in DMSO. Specific amounts of peptide from stock solution were added to a 96-well microtiter plate containing 100 μL of growth media and then serially diluted two-fold. A further 100 μL of growth media containing microbial cells were added to each well and incubated at 30–37 °C for 24–48 h. The optical density (OD) was measured at 600 nm using a BioStack Ready (BioTek Instruments, Winooski, VT, USA) microplate reader to analyze microbial growth inhibition, and IC50 and MIC values were calculated. To visualize the growth and inhibition pattern, a solution of 3-(4,5-dimethylthiazol-2-yl)-2,5-diphenyltetrazolium bromide (MTT) in water was added to the plate and incubated for 2–3 h. MTT reacts with the mitochondrial dehydrogenases, which are present only in a viable cell, to give blue colored formazan crystals. Therefore, a darker color indicates a high number of viable cells; however, non-viable cells appear pale or colorless.

C. neoformans = format: cell-based, Cryptococcus neoformans; conditions: 48 h
Source text: as §1, §2, §3

C. albicans = format: cell-based, Candida albicans; conditions: 48 h
Source text: as §1, §2, §3

C. glabrata = format: cell-based, Candida glabrata; conditions: 48 h
Source text: as §1, §2, §3

C. krusei = format: cell-based, Candida krusei; conditions: 48 h
Source text: as §1, §2, §3

E. coli = format: cell-based, Escherichia coli
Source text: as §1
as §2, with “Bacterial cells were diluted to a cell density of 10^5 CFU/mL and incubated at 37 °C for 24 h.” left out
as §3

S. pyogens = format: cell-based, Streptococcus pyogenes
E. faecalis = format: cell-based, Enterococcus faecalis
P. aeruginosa = format: cell-based, Pseudomonas aeruginosa
S. aureus = format: cell-based, Staphylococcus aureus
Source text: as §1
as §2, with “Bacterial cells were diluted to a cell density of 10^5 CFU/mL and incubated at 37 °C for 24 h.” left out
as §3

Structure (SMILES) | IC50 (C. parapsilosis) [µg/mL] | MIC (C. parapsilosis) [µg/mL] | IC50 (C. neoformans) [µg/mL] | MIC (C. neoformans) [µg/mL] | IC50 (C. albicans) [µg/mL] | MIC (C. albicans) [µg/mL] | IC50 (C. glabrata) [µg/mL] | MIC (C. glabrata) [µg/mL] | IC50 (C. krusei) [µg/mL] | MIC (C. krusei) [µg/mL] | IC50 (E. coli; 48 h) [µg/mL] | MIC (E. coli; 48 h) [µg/mL] | IC50 (S. pyogens; 48 h) [µg/mL] | MIC (S. pyogens; 48 h) [µg/mL] | IC50 (E. faecalis; 48 h) [µg/mL] | MIC (E. faecalis; 48 h) [µg/mL] | IC50 (P. aeruginosa; 48 h) [µg/mL] | MIC (P. aeruginosa; 48 h) [µg/mL] | IC50 (S. aureus; 48 h) [µg/mL] | MIC (S. aureus; 48 h) [µg/mL] | further results
COC(=O)[C@H](Cc1ncn(Cc2cc(F)cc(F)c2)c1I)NC(=O)[C@@H](N)Cc1c[nH]c2ccccc12 [10j] | >35.2 | >64.0 | 6.09 (≈ 10 µM) | 11.08 (≈ 18.2 µM) | >35.2 | >64.0 | >35.2 | >64.0 | >35.2 | >64.0 | – | – | – | – | – | – | – | – | – | – | –
COC(=O)[C@H](Cc1ncn(Cc2cccc(F)c2)c1I)NC(=O)[C@@H](N)Cc1c[nH]c2ccccc12 [10k] | >35.2 | >64.0 | 2.78 (≈ 4.72 µM) | 4.64 (≈ 7.87 µM) | >35.2 | >64.0 | >35.2 | >64.0 | >35.2 | >64.0 | >35.2 | >64.0 | >35.2 | >64.0 | >35.2 | >64.0 | >35.2 | >64.0 | >35.2 | >64.0 | –
COC(=O)[C@H](Cc1ncn(Cc2cccc(Cl)c2)c1I)NC(=O)[C@@H](N)Cc1c[nH]c2ccccc12 [10l] | >35.2 | >64.0 | – | 32.11 (≈ 53 µM) | >35.2 | >64.0 | >35.2 | >64.0 | >35.2 | >64.0 | >35.2 | >64.0 | >35.2 | >64.0 | >35.2 | >64.0 | >35.2 | >64.0 | >35.2 | >64.0 | –
COC(=O)[C@H](Cc1ncn(Cc2cccc(Br)c2)c1I)NC(=O)[C@@H](N)Cc1c[nH]c2ccccc12 [10m] | >35.2 | >64.0 | 9.23 (≈ 14.2 µM) | 16.79 (≈ 25.8 µM) | >35.2 | >64.0 | >35.2 | >64.0 | >35.2 | >64.0 | – | – | – | – | – | – | – | – | – | – | –
COC(=O)[C@H](Cc1ncn(Cc2cccc(I)c2)c1I)NC(=O)[C@@H](N)Cc1c[nH]c2ccccc12 [10n, Trp-His[1-(3-iodobenzyl)-5-iodo]-OMe] | >35.2 | >64.0 | – | 32.05 (≈ 46 µM) | >35.2 | >64.0 | >35.2 | >64.0 | >35.2 | >64.0 | >35.2 | >64.0 | >35.2 | >64.0 | >35.2 | >64.0 | >35.2 | >64.0 | >35.2 | >64.0 | –
CO[C@H]1/C=C/O[C@@]2(C)Oc3c(C)c(O)c4c(O)c(c(/C=N/N5CCN(C)CC5)c(O)c4c3C2=O)NC(=O)/C(C)=C\C=C\[C@H](C)[C@H](O)[C@@H](C)[C@@H](O)[C@@H](C)[C@H](OC(C)=O)[C@@H]1C [Rifampicin, reference compound] | – | – | – | – | – | – | – | – | – | – | – | – | – | – | – | – | – | – | – | – | IC50 (E. coli; Escherichia coli): 1 µg/mL (≈ 1.22 µM); MIC (E. coli; Escherichia coli): 2 µg/mL (≈ 2.43 µM); IC50 (S. pyogens; Streptococcus pyogenes, S. pyogens, read-out: IC50): 1 µg/mL (≈ 1.22 µM); MIC (S. pyogens; Streptococcus pyogenes, S. pyogens, read-out: MIC): 2 µg/mL (≈ 2.43 µM); IC50 (E. faecalis; Enterococcus faecalis, E. faecalis, read-out: IC50): 1 µg/mL (≈ 1.22 µM); MIC (E. faecalis; Enterococcus faecalis, E. faecalis, read-out: MIC): 2 µg/mL (≈ 2.43 µM); IC50 (P. aeruginosa; Pseudomonas aeruginosa, P. aeruginosa, read-out: IC50): 16 µg/mL (≈ 19.4 µM); MIC (P. aeruginosa; Pseudomonas aeruginosa, P. aeruginosa, read-out: MIC): 32 µg/mL (≈ 38.9 µM); IC50 (S. aureus; Staphylococcus aureus): 2 µg/mL (≈ 2.43 µM); MIC (S. aureus; Staphylococcus aureus): 4 µg/mL (≈ 4.86 µM)
